Key:
Type in all cases: cell-based
Caco-2 [1] = experiment: 2D 7-day MTS assay, cell proliferation on hydrogels; conditions: Caco-2, 2D on hydrogel, days 1, 4, 7, 490 nm, FIG. 7
Method: (§1) At the proper confluency, the plates were washed with 10 mL of DPBS followed by an addition of 5 mL of trypsin and a 5 min incubation time at 37° C. Upon the conclusion of the incubation time light microscopy was used to determine that the cells had become detached. 5 mL of DMEM-10-1 was added to the plate and the trypsin/DMEM mixture was transferred into a 15 mL conical tube. A 1:4:5 ratio of cell mixture/DMEM-10-1/trypan blue was created in a 2.0 mL cryogenic vial. The mixture contained ˜1.2×10^5 cells-mL-1. The cells were pelleted down by centrifugation at 1500 rpm for 5 minutes and the trypsin/DMEM mixture was aspirated. The cells were resuspended in 10 mL of DMEM-10-1. For the MTS assay, 3.0×10^4 cells per well were seeded (In total 2.43×10^6 cells are needed for 81 wells). In each well (n=3 per time point) of a 96 well plate 16 μL of Heprasil® ([…], 1% w/v), 16 μL of Gelatin-S® (10 mg-mL-1, 1% w/v), 4 μL of Extralink® (5 mg 0.250 μL-1, 2% w/v), and 4 μL of modular catecholamine ([…], 3.6 mM, 1% w/v), C1.1 and C1.2, respectively were mixed by gently pipetting the solution up and down. The wells were then exposed to UV radiation (˜222 nm) for 3 seconds at distance of 1 cm to initiate crosslinking and form the hydrogel matrix. Approximately 30,000 cells were seeded per well; 200 μL of DMEM+10% FBS+1% pen-strep media at a density of 1.2×10^5 cells-mL-1 were aliquoted into each well, Caco-2 and HepG2 cell lines, respectively. A total of 27 wells per time point (3 per condition-positive control, catecholamine (C1.1), and catecholamide (C1.2) for each cell line, Caco-2 and HepG2. For the 3D cell cultural technique and amount of cells used in the live/dead assay refer to the Live/Dead Assay section.
(§2) The MTS assay is widely-used as a nonradioactive quantification of cellular proliferation, viability, and cytotoxicity.28 The MTS assay based on the reduction of MTS tetrazolium compound by viable cells to generate a colored formazan product that is soluble in cell culture media. This conversion is thought to be carried out by NAD(P)H-dependent dehydrogenase enzymes in metabolically active cells. MTS assays were performed using a CellTiter 96® AQueous One Solution Cell Proliferation Assay (G3582, Promega) at days 1, 4, 7. […] At the conclusion of the 45-minute incubation period a Molecular Device SpectraMax M5 plate reader was used to determine the optical density of each well monitored at 490 nm. […] Reported uncertainties were calculated using the standard deviations between the normalized OD values for n=3 runs of each condition.
(§3) In addition to Live/Dead assays, MTS assays were used to quantify the proliferation of cells. In this case, the ability for cells to proliferate in 2D when seeded on the hydrogels was assessed.

HepG2 [2] = experiment: as above; conditions: HepG2, 2D on hydrogel, days 1, 4, 7, 490 nm, FIG. 7
Method: as §1, §2, §3

Caco-2 [3] = experiment: 3D Live/Dead assay with red vs green pixel analysis; conditions: Caco-2, 3D, days 1, 4, 7; 1% w/v compound solution
Method: (§4) 3.0×10^6 HepG2 and Caco-2 cells were harvested from the tissue culture dishes, respectively. Following, they were centrifuged into cell pellets and the supernatant was discarded. For each cell line, HepG2 and Caco2, three conditions were prepared, i.e., a positive control (HyStem®) and two experimental conditions (HyStem®+C1.1 and HyStem®+C1.2). To prepare each condition, a 3.0×10^6 cell pellet was suspended in 500 μL 1% w/v Heprasil®, 500 μL 1% w/v Gelatin-S®, 125 μL of 2% w/v Extralink®, and 125 μL of 1% w/v C1.1/C1.2 (experimental conditions) or 125 μL of sterile, deionized water (positive control). The final cell density for each condition was […]. One 50 μL sample of each hydrogel condition at each condition was aliquoted into a 96-well for each time point (1, 4, and 7 days). […] At each time point media was aspirated from the wells and were subsequently incubated for 45-60 min with 200 μL of DPBS containing […] of calcein AM and […] of ethidium homodimer. Live cells fluoresce green due to the uptake and hydrolysis of calcein AM, and the nuclei of dead cells are labelled by the red-fluorescent ethidium homodimer.
(§5) A MATLAB (MathWorks®) script (supplemental information, S.3) was used to quantify red and green fluorescent signals generated by biochemical interactions between the ethidium homodimer and calcein AM, and cells, respectively.
(§6) Quantification of the red (dead) and green (viable) pixels was performed using an image processing script written on MATLAB (S.3). In this case, the live cell staining corresponds with the cytoplasm of the cell while the dead stain only highlights the nuclei of the cell therefore we use the ratio of red to green pixels as a quantification to show the relative cell-viability rather than report individual Live/Dead cell quantification over time.

HepG2 [4] = experiment: as above; conditions: HepG2, 3D, days 1, 4, 7; 1% w/v compound solution
Method: as §4, §5, §6

Row | Structure (SMILES) | cell proliferation, normalized optical density (MTS) compared to control (Caco-2 [1]) | cell proliferation, normalized optical density (MTS) compared to control (HepG2 [2]) | biocompatibility / cell viability in hydrogel (Live/Dead) (Caco-2 [3]) | biocompatibility / cell viability in hydrogel (Live/Dead) (HepG2 [4])
1 | C#CCNCc1ccc(O)c(O)c1 [Compound C1.1] | higher | higher | only a slightly depressed biocompatibility | only a slightly depressed biocompatibility
2 | C#CCNC(=O)Cc1ccc(O)c(O)c1 [Compound C1.2] | higher | higher | only a slightly depressed biocompatibility | only a slightly depressed biocompatibility
